Results: ChEMBL document CHEMBL1201862, “PubChem BioAssay data set” (2004)
The source made the active and inactive calls.

Assays:
Caspase-3 = target: T1, Caspase-3 (Homo sapiens, UniProt P42574); format: functional;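 also: Dose-response selectivity test against caspase-3 for candidate inhibitors of sentrin-specific proteases (SENPs)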
T1 sequence (P42574 whole entry): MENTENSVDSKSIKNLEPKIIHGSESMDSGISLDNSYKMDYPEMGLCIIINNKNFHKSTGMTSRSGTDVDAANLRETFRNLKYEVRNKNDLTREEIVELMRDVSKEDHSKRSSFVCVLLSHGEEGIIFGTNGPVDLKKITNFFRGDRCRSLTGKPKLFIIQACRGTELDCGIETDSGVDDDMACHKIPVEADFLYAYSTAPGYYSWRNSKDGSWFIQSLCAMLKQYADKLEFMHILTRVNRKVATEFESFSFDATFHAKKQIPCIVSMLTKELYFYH

Caspase-9 = Caspase-9 (Homo sapiens, UniProt P55211); experiment: inhibitors of purified CASP9 protease – biochemical, fluorescence, plate reader, cherry-picked samples, selectivity assay for caspase-6 inhibitor project, dose response (AID 743293)
Caspase-8 = Caspase-8 (Homo sapiens, UniProt Q14790); experiment: inhibitors of purified CASP8 protease – biochemical, Z-IETD-R110 fluorescence, cherry-picked samples, selectivity assay for caspase-6 inhibitor project, dose response (AID 743294)
Large T antigen = Large T antigen (Simian virus 40, UniProt P03070); format: functional, Betapolyomavirus macacae;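 also: Confirmatory-stage PubChem screen for compounds that inhibit SV40 T antigen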
ORF 73 = ORF 73 (Human herpesvirus 8, UniProt O40947); experiment: KSHV LANA DNA-binding disruption – biochemical, fluorescence polarization, cherry-picked samples, dose response (AID 504725); parameters: species or system Human gammaherpesvirus 8;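 also: fluorescence polarization of a labeled DNA duplex reporting LANA DNA binding; potency is for inhibitors that block LANA binding to the DNA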
Vero = experiment: viability of Vero cells under compound – cytotoxicity control for flavivirus capping enzyme inhibitors (AID 588742); format: functional; details: Chlorocebus sabaeus
[1] = target: Glutathione-S-transferase (Schistosoma japonicum, UniProt Q26513); experiment: GST-antibody interaction or FRET quenching – biochemical, TR-FRET, artefact control for Vif-APOBEC3G degradation inhibitor project, dose response (AID 1117362); format: functional
Nonstructural protein 1 = Nonstructural protein 1 (Influenza A virus, UniProt Q194T2); format: functional, Influenza A virus (A/California/07/2009(H1N1))
Galanin receptor type 3 = target: T2, Galanin receptor type 3 (Homo sapiens, UniProt O60755); experiment: Fluorescence-based cell-based primary high throughput dose response assay to identify antagonists of the Galanin Receptor 3 (GalR3).; format: functional
T2 sequence (O60755 whole entry): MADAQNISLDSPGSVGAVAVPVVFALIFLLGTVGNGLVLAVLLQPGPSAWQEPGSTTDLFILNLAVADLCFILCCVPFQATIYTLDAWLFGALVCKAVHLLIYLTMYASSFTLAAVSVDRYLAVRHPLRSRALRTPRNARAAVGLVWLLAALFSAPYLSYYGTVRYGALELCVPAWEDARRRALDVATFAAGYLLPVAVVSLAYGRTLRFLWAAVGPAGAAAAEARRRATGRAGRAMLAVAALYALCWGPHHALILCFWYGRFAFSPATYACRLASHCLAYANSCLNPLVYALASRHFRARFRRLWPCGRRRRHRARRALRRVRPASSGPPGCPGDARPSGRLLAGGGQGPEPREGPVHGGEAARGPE

[2] = target: T3, Endoribonuclease toxin MazF (Escherichia coli K-12, UniProt P0AE70); experiment: substrate-only fluorescence increase artefacts – biochemical, single-stranded RNase substrate, counter-screen for MazEF activator project, dose response (AID 588502); format: functional
T3 sequence (P0AE70 whole entry): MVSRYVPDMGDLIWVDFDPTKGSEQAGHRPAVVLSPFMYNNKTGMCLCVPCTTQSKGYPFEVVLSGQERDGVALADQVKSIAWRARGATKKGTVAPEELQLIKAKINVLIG

[3] = target: Transitional endoplasmic reticulum ATPase (Homo sapiens, UniProt P55072, C522A); experiment: C522A mutant p97 ATPase inhibitors, dose response, counter-screen for p97 inhibitor project, biochemical, luminescence (AID 1544)
Streptokinase A = target: T4, Streptokinase A (Streptococcus pyogenes serotype M1, UniProt P10520); experiment: viability-normalized secreted streptokinase activity reduction – plasminogen activation absorbance, OD405, dose response (AID 1914); format: functional, Streptococcus pyogenes M1 GAS;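 also: secreted streptokinase activity via plasminogen activation per viability signal from cell pellet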
T4 sequence (P10520 whole entry): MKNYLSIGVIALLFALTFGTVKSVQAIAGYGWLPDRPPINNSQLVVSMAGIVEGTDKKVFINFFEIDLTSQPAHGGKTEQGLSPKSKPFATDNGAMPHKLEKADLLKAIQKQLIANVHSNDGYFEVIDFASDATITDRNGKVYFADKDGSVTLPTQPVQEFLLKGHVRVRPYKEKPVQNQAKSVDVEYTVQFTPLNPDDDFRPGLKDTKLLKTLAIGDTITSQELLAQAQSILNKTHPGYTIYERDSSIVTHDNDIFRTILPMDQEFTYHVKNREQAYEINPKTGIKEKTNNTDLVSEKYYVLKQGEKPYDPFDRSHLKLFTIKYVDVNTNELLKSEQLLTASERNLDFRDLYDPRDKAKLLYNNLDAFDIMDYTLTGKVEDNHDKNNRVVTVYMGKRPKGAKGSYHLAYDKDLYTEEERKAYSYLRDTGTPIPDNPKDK

[4] = target: Mitochondrial peptide methionine sulfoxide reductase (Bos taurus, UniProt P54149); experiment: Absorbance-based biochemical high throughput dose response assay for activators of Methionine sulfoxide reductase A (MsrA).; format: functional
[5] = system: Streptococcus sp. 'group A'; experiment: Streptococcus pyogenes SK(-)GAS viability under kanamycin – luminescence, BacTiterGlo, confirmation, counter-screen for streptokinase expression inhibitor project, dose response (AID 1900); format: functional, organism-based
[6] = Vero E6 cell cytotoxicity, dose response, cytotoxicity control for non-replicating M. tuberculosis project, secondary assay (AID 492998); format: functional, VeroE6; details: Vero C1008
BJ = experiment: BJ-TERT-LT-ST fibroblast viability loss – cell-based, RAS-independent, luminescence, dose response (AID 1935); format: functional; details: Homo sapiens;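 also: BJ fibroblasts immortalized with TERT plus LT and ST oncogenes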
Streptococcus = experiment: GAS UMAA2166 growth inhibition – luminescence, BacTiterGlo, counter-screen for streptokinase expression inhibitor project, dose response (AID 1915); format: functional, organism-based;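 also: potency for reduction of bacterial viability or growth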
[7] = target: Photoreceptor-specific nuclear receptor (Homo sapiens, UniProt Q9Y5X4); format: functional;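 also: potency for compounds that break the NR2E3 corepressor complex and count as activators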
[8] = viability of PTEN-deleted HCT116 cells – cell-based, HCT116 PTEN knockout, dose response (AID 1047); format: functional;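 also: HCT116 colon tumor cells with PTEN knocked out; cells exposed to compound for 60 hours before readout; potency for loss of cell viability measured by luminescence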
[9] = HepG2 cell cytotoxicity, dose response, cytotoxicity control for non-replicating M. tuberculosis project (AID 489018); format: functional; details: Mycobacterium tuberculosis
[10] = target: Lysine-specific demethylase 4A (Homo sapiens, UniProt O75164); experiment: inhibition of JMJD2A H3K9me3 demethylation – biochemical, DELFIA europium, cherry-picked samples, selectivity assay for GASC-1 inhibitor project, dose response (AID 488840)
[11] = alpha-synuclein stem-loop luciferase translation blockers – H4 neuroglioma cells, luminescence, confirmation (AID 1988); format: functional, cell-based
[12] = DRD fibroblast viability loss – cell-based, non-viral oncogenic, luminescence, dose response (AID 1934); format: functional; details: Homo sapiens

Chain of Nonstructural protein 1 (Q194T2 whole entry): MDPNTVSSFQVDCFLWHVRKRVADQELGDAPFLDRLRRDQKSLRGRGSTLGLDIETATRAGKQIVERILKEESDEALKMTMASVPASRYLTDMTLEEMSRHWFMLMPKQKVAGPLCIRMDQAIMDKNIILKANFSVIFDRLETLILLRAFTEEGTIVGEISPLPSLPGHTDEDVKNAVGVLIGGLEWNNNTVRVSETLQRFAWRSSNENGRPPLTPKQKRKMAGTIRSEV
Chain of Caspase-8 (Q14790 217-374 limits assumed): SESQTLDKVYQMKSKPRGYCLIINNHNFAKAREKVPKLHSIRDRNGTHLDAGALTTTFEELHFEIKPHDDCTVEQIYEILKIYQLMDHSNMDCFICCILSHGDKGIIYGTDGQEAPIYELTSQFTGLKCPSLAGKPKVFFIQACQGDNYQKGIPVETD
Chain of Caspase-8 (Q14790 385-479 limits assumed): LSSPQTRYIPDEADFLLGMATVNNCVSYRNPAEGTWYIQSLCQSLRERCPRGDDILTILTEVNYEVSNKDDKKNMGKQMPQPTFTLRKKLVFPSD
Chain of Glutathione-S-transferase (Q26513 whole entry): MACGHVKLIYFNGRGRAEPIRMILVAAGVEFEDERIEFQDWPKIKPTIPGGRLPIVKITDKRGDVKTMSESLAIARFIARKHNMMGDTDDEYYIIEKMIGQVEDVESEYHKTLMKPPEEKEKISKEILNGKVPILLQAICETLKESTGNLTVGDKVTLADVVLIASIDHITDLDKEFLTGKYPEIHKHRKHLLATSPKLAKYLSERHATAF
Chain of Mitochondrial peptide methionine sulfoxide reductase (P54149 whole entry): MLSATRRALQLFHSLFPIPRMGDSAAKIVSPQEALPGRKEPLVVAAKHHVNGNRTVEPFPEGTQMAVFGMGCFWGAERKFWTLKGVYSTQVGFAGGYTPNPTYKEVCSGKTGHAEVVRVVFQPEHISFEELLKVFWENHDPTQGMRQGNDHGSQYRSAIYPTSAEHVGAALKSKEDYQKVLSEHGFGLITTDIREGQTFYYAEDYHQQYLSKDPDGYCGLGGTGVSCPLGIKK
Chain of Photoreceptor-specific nuclear receptor (Q9Y5X4 whole entry): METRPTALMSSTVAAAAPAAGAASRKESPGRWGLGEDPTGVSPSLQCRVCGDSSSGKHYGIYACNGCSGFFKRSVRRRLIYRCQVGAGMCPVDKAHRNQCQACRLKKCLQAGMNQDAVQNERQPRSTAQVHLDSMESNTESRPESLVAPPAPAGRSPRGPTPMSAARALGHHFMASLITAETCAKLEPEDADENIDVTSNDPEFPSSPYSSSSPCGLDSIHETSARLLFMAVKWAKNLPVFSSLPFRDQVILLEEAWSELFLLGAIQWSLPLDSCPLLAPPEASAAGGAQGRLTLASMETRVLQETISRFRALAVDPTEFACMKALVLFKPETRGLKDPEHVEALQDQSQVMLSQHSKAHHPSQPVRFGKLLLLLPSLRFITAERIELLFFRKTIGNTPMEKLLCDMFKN
Chain of Lysine-specific demethylase 4A (O75164 whole entry): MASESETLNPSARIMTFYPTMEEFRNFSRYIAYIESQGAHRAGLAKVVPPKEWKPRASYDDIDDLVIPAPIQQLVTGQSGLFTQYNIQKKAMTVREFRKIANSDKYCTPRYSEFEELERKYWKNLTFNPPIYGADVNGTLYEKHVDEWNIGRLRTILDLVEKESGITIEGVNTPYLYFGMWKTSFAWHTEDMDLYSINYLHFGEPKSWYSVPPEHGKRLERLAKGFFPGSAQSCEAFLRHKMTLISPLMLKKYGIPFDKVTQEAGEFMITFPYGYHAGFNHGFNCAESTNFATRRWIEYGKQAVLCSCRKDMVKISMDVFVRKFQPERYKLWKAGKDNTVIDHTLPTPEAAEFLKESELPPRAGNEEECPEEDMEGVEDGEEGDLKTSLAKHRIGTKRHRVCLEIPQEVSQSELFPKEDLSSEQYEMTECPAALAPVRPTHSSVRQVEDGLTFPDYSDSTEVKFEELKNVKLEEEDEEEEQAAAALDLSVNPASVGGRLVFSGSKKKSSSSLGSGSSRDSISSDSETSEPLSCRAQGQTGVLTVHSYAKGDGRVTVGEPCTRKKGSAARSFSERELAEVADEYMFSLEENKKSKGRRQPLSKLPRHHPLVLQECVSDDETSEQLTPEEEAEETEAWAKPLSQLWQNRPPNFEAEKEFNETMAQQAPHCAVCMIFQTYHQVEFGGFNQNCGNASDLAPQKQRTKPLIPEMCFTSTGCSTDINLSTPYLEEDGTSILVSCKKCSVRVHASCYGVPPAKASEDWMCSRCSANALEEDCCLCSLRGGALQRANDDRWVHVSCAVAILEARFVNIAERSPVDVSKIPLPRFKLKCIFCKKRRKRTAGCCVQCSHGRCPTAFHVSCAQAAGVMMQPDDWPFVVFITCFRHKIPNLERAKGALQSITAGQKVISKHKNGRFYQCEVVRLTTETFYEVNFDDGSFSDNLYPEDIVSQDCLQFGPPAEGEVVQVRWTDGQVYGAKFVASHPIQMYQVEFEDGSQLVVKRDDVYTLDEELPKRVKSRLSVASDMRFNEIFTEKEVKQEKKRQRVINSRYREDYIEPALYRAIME
Chain of ORF 73 (O40947 whole entry): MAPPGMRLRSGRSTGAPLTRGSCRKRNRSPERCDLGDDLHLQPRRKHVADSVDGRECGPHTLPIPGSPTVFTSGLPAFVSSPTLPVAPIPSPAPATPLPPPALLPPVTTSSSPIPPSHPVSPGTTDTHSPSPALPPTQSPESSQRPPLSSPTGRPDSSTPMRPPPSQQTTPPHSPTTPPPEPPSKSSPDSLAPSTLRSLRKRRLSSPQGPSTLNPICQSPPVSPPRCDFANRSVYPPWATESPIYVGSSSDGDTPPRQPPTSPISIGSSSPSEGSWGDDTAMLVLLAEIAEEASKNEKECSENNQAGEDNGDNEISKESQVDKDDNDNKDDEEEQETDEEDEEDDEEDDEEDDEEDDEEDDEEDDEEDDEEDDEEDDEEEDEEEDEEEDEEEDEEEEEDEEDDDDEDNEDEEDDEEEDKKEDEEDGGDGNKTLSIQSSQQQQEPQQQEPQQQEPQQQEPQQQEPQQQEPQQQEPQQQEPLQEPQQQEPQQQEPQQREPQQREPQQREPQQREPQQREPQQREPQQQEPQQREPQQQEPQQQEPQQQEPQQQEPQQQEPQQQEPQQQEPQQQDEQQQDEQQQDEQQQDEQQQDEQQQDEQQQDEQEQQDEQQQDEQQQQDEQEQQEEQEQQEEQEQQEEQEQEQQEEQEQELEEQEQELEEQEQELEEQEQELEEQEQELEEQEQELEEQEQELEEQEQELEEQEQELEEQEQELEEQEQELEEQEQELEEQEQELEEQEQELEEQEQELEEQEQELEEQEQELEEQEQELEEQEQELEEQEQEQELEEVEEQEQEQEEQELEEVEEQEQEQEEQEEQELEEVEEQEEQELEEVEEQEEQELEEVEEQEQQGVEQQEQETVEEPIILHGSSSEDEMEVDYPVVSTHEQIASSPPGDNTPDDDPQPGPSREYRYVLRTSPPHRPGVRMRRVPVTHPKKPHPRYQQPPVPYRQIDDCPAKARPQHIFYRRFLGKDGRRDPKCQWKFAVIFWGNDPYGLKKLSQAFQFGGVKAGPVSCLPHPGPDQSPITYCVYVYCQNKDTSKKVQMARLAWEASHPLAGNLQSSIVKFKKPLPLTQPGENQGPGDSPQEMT
Chain of Transitional endoplasmic reticulum ATPase (P55072 2-806 C522A limits assumed): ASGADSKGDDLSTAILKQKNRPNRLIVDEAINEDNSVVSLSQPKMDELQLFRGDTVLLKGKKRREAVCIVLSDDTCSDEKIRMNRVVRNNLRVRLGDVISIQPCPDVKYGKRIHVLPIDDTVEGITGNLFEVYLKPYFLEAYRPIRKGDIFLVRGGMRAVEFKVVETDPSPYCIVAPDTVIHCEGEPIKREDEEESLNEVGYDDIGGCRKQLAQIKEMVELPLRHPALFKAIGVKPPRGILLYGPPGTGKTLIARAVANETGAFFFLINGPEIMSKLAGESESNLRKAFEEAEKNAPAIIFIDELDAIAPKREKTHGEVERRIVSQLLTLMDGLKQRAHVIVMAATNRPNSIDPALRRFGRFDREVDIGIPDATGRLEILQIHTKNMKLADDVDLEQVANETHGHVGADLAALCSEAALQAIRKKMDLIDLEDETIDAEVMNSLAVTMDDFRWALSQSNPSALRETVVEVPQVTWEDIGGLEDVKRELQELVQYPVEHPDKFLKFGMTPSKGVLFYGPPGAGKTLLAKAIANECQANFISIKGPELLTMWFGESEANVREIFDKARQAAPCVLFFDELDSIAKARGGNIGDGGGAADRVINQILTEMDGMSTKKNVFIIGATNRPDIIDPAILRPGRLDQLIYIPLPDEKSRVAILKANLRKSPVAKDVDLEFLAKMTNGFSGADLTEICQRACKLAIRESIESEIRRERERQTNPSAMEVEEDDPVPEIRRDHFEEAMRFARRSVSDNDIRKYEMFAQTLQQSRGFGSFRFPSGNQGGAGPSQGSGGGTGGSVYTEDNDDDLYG
Chain of Caspase-9 (P55211 1-315 limits assumed): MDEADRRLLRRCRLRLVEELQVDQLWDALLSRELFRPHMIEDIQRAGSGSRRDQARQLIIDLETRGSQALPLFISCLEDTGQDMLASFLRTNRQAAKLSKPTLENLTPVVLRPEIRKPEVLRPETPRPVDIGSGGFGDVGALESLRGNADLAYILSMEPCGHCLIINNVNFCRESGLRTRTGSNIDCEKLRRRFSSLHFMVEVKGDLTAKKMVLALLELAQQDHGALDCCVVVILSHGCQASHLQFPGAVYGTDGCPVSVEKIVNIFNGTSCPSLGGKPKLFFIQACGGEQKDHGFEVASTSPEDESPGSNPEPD
Chain of Caspase-9 (P55211 331-416 limits assumed): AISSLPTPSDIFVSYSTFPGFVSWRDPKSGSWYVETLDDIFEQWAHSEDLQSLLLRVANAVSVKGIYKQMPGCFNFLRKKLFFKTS

Question: For `Oc1nc(Nc2ccccc2Cl)cc2ccccc12`, which IC50 (Caspase-3) is on record?
Answer: 4.42 µM (active)

Question: What about the AC50 (Caspase-9) of the same compound?
Answer: 28.8 µM (active)

Question: And the AC50 (Caspase-8)?
Answer: 13.4 µM (active)

Question: Which IC50 (Large T antigen) does the source give for `O=C(CCN1C(=O)/C(=C\c2ccco2)SC1=S)Nc1ccc(C(=O)O)c(O)c1` here?
Answer: > 100 µM (active)

Question: And the AC50 (ORF 73)?
Answer: 94.6 µM (active)

Question: Which CC50 (Vero) does the source give for `O=C1C=C(c2c(O)ccc3ccccc23)c2ccccc2C1=O` here?
Answer: 22.1 µM (active)

Question: And the IC50 [1]?
Answer: > 100 µM (active)

Question: And the IC50 (Nonstructural protein 1)?
Answer: 46.5 µM (active)

Question: And the IC50 (Galanin receptor type 3)?
Answer: > 3.32 µM (active)

Question: And the EC50 [2]?
Answer: > 99 µM (inactive)

Question: What does the source list for `Cc1nc2c(=O)n(C)c(=O)nc-2n(C)n1`?
Answer: IC50 [3]: > 50 µM (not active); EC50 (Streptokinase A): > 150 µM (not active); EC50 [4]: 63.7 µM (inactive); EC50 [5]: 4.74 µM (active); CC50 [6]: 4.51 µM (active); EC50 (BJ): 4.95 µM (inconclusive); EC50 (Streptococcus): 9.31 µM (active); IC50 [7]: > 39.8 µM (not active); EC50 [8]: 0.821 µM (active); CC50 [9]: 4.16 µM (active); AC50 [10]: 1.78 µM (active); EC50 [11]: 0.136 µM (active); EC50 [12]: 4.39 µM (active)
